Results reported in patent publication US8828696B2, “Use of Penicillin G Procaine as a selective antimicrobial agent in the production of alcohol by fermentation” (Lallemand Specialites, Inc, priority 2008, dated 2014).
Read-outs that look alike come from different tables or passages of the source.

Tested on: Saccharomyces cerevisiae yeast
Assay type: cell-based
Protocol: A study was conducted to determine the degree of impact of the fermentation antimicrobial Penicillin G Procaine and Penicillin G potassium during alcohol production by fermentation. The antimicrobial impact was inferred by conducting a series of fermentations and measuring if the above said antibiotics interfered with the cell growth and the fermentation function of Saccharomyces cerevisiae yeast used in the fermentation phase. This study provided analysis of what impact, if any, the Penicillin G Procaine or Penicillin G Potassium has on the yeast during lab scale fermentations, specifically BioFerm® XR yeast from North American Bioproducts Corporation (NABC). This study observed the ability of yeast to replicate and ferment a corn mash substrate with and without the presence of Penicillin G Procaine or Penicillin G Potassium.
This study was set up in a series of fermentation vessels. All antibiotic concentrations were tested in triplicate. Cell counts were done on one flask for each treatment at 12, 24, 36 and 48 hours and testing of the fermentation reactions by HPLC was also performed at 12, 24, 36 and 48 hours. The experiment was set as follows:
1. Antibiotic solutions were prepared to provide a sterile 1 and 10 μg/ml solutions.
2. Antibiotic solutions tested were as follows:
3. Fermentations were set up using 31% solids corn mash using saccharifying enzymes and the following procedure:
A. Yeast Conditioning: • 1. Add 2 g yeast to 10 ml sterile water for each 3 flasks to test, (14 g yeast to 70 ml water) into a sterile 250 ml flask and place in water bath set to 100° F. • 2. Incubate at 100° F. for 30 minutes with occasional mixing. • 3. Remove flasks from water bath and divide suspension between the all flasks for the trial.
B. Fermentation Procedure • 1. To prepared mash, add the following. • a. Add 0.58 g urea/liter mash and mix. • b. Add 0.2 ml GA per liter and mix. • 2. Remove sample for background HPLC testing. • 3. Add antibiotic solution to labeled sterile 250 ml flasks. • 4. Add hydrated yeast suspension to mash and mix well. • 5. Add sterile stir bar to each flask and add about 150 ml mash into each 250 ml flask for a total of 21 flasks. • 6. Cover each flask with a gas trap in a sterilized stopper. • 7. Place in a 33° C. water bath with continuous mixing at 280 rpm at 75% power. • 8. Remove sample at 12 hr interval to perform cell count, viability and budding. • 9. Incubate sample up to 48 hours, enough time for complete fermentation • 10. Collect samples at the following times for cell counts and HPLC testing: 12 hours; 24 hours; 36 hours and 48 hours

[1] = 5 ppm, 12 hours, total cell count x % viability
[2] = 5 ppm, 12 hr fermentation sample
[3] = 5 ppm, 24 hours, total cell count x % viability
[4] = 5 ppm, 24 hr fermentation sample
[5] = 5 ppm, 36 hours, total cell count x % viability
[6] = 5 ppm, 36 hr fermentation sample
[7] = 5 ppm, 48 hours, total cell count x % viability
[8] = 5 ppm, 48 hr fermentation sample
[9] = 5 ppm, average of 12, 24, 36 and 48 hour samples
[10] = 15 ppm, 12 hours, total cell count x % viability
[11] = 15 ppm, 12 hr fermentation sample
[12] = 15 ppm, 24 hours, total cell count x % viability
[13] = 15 ppm, 24 hr fermentation sample
[14] = 15 ppm, 36 hours, total cell count x % viability
[15] = 15 ppm, 36 hr fermentation sample
[16] = 15 ppm, 48 hours, total cell count x % viability
[17] = 15 ppm, 48 hr fermentation sample
[18] = 15 ppm, average of 12, 24, 36 and 48 hour samples
[19] = 30 ppm, 12 hours, total cell count x % viability
[20] = 30 ppm, 12 hr fermentation sample
[21] = 30 ppm, 24 hours, total cell count x % viability
[22] = 30 ppm, 24 hr fermentation sample
[23] = 30 ppm, 36 hours, total cell count x % viability
[24] = 30 ppm, 36 hr fermentation sample
[25] = 30 ppm, 48 hours, total cell count x % viability
[26] = 30 ppm, 48 hr fermentation sample
[27] = 30 ppm, average of 12, 24, 36 and 48 hour samples
[28] = average for all three trials (5, 15, 30 ppm), 12-48 hour samples
[29] = average for all three trials (5, 15, 30 ppm), 12 hours
[30] = average for all three trials (5, 15, 30 ppm), 24 hours
[31] = average for all three trials (5, 15, 30 ppm), 36 hours
[32] = average for all three trials (5, 15, 30 ppm), 48 hours
[33] = average for all three trials (5, 15, 30 ppm), Average 12-48 hours

## CC1(C)S[C@@H]2[C@H](NC(=O)Cc3ccccc3)C(=O)N2[C@H]1C(=O)[O-].[K+] [Penicillin G Potassium]
[1]
  viable yeast cell count: 510
[2]
  % B (% budding): 13.8%
  % V (% viability): 88%
  CC (cell count): 580
[3]
  viable yeast cell count: 500
[4]
  % B (% budding): 8.4%
  % V (% viability): 90%
  CC (cell count): 556
[5]
  viable yeast cell count: 421
[6]
  % B (% budding): 8.1%
  % V (% viability): 81%
  CC (cell count): 520
[7]
  viable yeast cell count: 381
[8]
  % B (% budding): 8.9%
  % V (% viability): 75%
  CC (cell count): 508
5 ppm, Average 12-48 hours
  viable yeast cell count: 453
[9]
  A % B (average % budding): 9.8%
  A % V (average % viability): 83.5%
  ACC (average cell count): 541
[10]
  viable yeast cell count: 469
[11]
  % B (% budding): 13.3%
  % V (% viability): 85%
  CC (cell count): 552
[12]
  viable yeast cell count: 465
[13]
  % B (% budding): 7.5%
  % V (% viability): 86%
  CC (cell count): 541
[14]
  viable yeast cell count: 435
[15]
  % B (% budding): 6.2%
  % V (% viability): 82%
  CC (cell count): 530
[16]
  viable yeast cell count: 372
[17]
  % B (% budding): 7.3%
  % V (% viability): 72%
  CC (cell count): 516
15 ppm, Average 12-48 hours
  viable yeast cell count: 435
[18]
  A % B (average % budding): 8.6%
  A % V (average % viability): 81.3%
  ACC (average cell count): 535
[19]
  viable yeast cell count: 535
[20]
  % B (% budding): 12.3%
  % V (% viability): 86%
  CC (cell count): 622
[21]
  viable yeast cell count: 462
[22]
  % B (% budding): 8.7%
  % V (% viability): 88%
  CC (cell count): 525
[23]
  viable yeast cell count: 401
[24]
  % B (% budding): 8.7%
  % V (% viability): 80%
  CC (cell count): 501
[25]
  viable yeast cell count: 393
[26]
  % B (% budding): 6.4%
  % V (% viability): 77%
  CC (cell count): 511
30 ppm, Average 12-48 hours
  viable yeast cell count: 448
[27]
  A % B (average % budding): 9.0%
  A % V (average % viability): 82.8%
  ACC (average cell count): 540
[28]
  A % B (average % budding): 9.1%
  A % V (average % viability): 82.5%
  ACC (average cell count): 539
[29]
  viable yeast cell count: 505
[30]
  viable yeast cell count: 476
[31]
  viable yeast cell count: 419
[32]
  viable yeast cell count: 382
[33]
  viable yeast cell count: 445

## CC1(C)S[C@@H]2[C@H](NC(=O)Cc3ccccc3)C(=O)N2[C@H]1C(=O)O.CCN(CC)CCOC(=O)c1ccc(N)cc1 [Penicillin G Procaine]
[1]
  viable yeast cell count: 535
[2]
  % B (% budding): 15.0%
  % V (% viability): 89%
  CC (cell count): 601
[3]
  viable yeast cell count: 489
[4]
  % B (% budding): 7.9%
  % V (% viability): 88%
  CC (cell count): 556
[5]
  viable yeast cell count: 432
[6]
  % B (% budding): 9.2%
  % V (% viability): 83%
  CC (cell count): 521
[7]
  viable yeast cell count: 404
[8]
  % B (% budding): 8.0%
  % V (% viability): 75%
  CC (cell count): 538
5 ppm, Average 12-48 hours
  viable yeast cell count: 465
[9]
  A % B (average % budding): 10.0%
  A % V (average % viability): 83.8%
  ACC (average cell count): 554
[10]
  viable yeast cell count: 494
[11]
  % B (% budding): 17.7%
  % V (% viability): 86%
  CC (cell count): 574
[12]
  viable yeast cell count: 528
[13]
  % B (% budding): 7.8%
  % V (% viability): 91%
  CC (cell count): 580
[14]
  viable yeast cell count: 410
[15]
  % B (% budding): 7.3%
  % V (% viability): 78%
  CC (cell count): 526
[16]
  viable yeast cell count: 385
[17]
  % B (% budding): 9.0%
  % V (% viability): 74%
  CC (cell count): 520
15 ppm, Average 12-48 hours
  viable yeast cell count: 454
[18]
  A % B (average % budding): 10.4%
  A % V (average % viability): 82.3%
  ACC (average cell count): 550
[19]
  viable yeast cell count: 528
[20]
  % B (% budding): 14.8%
  % V (% viability): 85%
  CC (cell count): 621
[21]
  viable yeast cell count: 496
[22]
  % B (% budding): 10.3%
  % V (% viability): 89%
  CC (cell count): 557
[23]
  viable yeast cell count: 400
[24]
  % B (% budding): 7.0%
  % V (% viability): 78%
  CC (cell count): 513
[25]
  viable yeast cell count: 385
[26]
  % B (% budding): 6.0%
  % V (% viability): 78%
  CC (cell count): 493
30 ppm, Average 12-48 hours
  viable yeast cell count: 452
[27]
  A % B (average % budding): 9.5%
  A % V (average % viability): 82.5%
  ACC (average cell count): 546
[28]
  A % B (average % budding): 10.0%
  A % V (average % viability): 82.8%
  ACC (average cell count): 550
[29]
  viable yeast cell count: 519
[30]
  viable yeast cell count: 504
[31]
  viable yeast cell count: 414
[32]
  viable yeast cell count: 391
[33]
  viable yeast cell count: 457
